Data on one molecule can be found in patent publication US20170252383A1, “AGENT FOR PROMOTING GROWTH OF NONPATHOGENIC ORAL INDIGENOUS BACTERIA OR AGENT FOR IMPROVING ORAL BACTERIAL FLORA, AND COMPOSITION FOR ORAL USE” (HOKUTO CORPORATION, priority 2014, published 2017).

Assay in all cases: Growth-promoting effects on normal bacteria in oral cavity (Experimental Example 2)
Common to all, as to assay type: cell-based
What all share (conditions): powder 0.01% in distilled water (triclosan concentration not printed), aerobic 37° C., 12 hours, turbidity relative to control without sample

Test [1] deals with Streptococcus gordonii ATCC 10558. On the procedure:
(§1) Dry-ground mushroom powder suspensions obtained by dispersing the dry-ground powders of various mushrooms prepared as described above to a concentration of 0.01% in distilled water, and 4% aqueous solutions of the various mushroom extracts obtained as described above, were each added as samples in 100 μL portions to 96-well plates.
(§2) Next, 100 μL of suspensions of the bacteria shown in Tables 1 and 2 were added to the dry-ground mushroom powder suspensions and mushroom extracts serving as these samples, and the bacteria were cultured aerobically at 37° C. for 12 hours. The bacterial suspensions used were prepared by pre-culturing the bacteria in a tryptic soy medium (TS medium; Becton and Dickinson), and inoculating the pre-cultured bacteria to a 2% concentration in a 2-fold concentration TS medium.
(§3) Bacterial proliferation was measured, calculated and evaluated in the same way as in Experimental Example 1.
(§4) The indigenous oral bacteria used in evaluation were of the following three species purchased from the ATCC.
Streptococcus gordonii ATCC 10558 (S. gordonii)
(§5) Prior to turbidity measurement, the culture fluids were stirred by shaking the plates.

In test [2] the test system is Streptococcus mitis ATCC 47456. On the procedure:
as §1, §2, §3, §4
Streptococcus mitis ATCC 47456 (abbreviated below as S. mitis)
as §5

Test [3] relates to Streptococcus oralis ATCC 9811. As to the method:
as §1, §2, §3, §4
Streptococcus oralis ATCC 9811 (abbreviated below as S. oralis)
as §5

Each structure is given as a SMILES string.

On to `Oc1cc(Cl)ccc1Oc1ccc(Cl)cc1Cl` [Triclosan, triclosan], for which the “Degree of bacterial growth due to dry-ground powders, S. gordonii” value in test [1] is 0; in test [1] (listed as triclosan) it was “suppressed growth”. In addition, the “Degree of bacterial growth due to dry-ground powders, S. mitis” value in test [2] is 0; in test [2] (listed as triclosan) it was “suppressed growth”. The “Degree of bacterial growth due to dry-ground powders, S. oralis” value in test [3] is 0; in test [3] (listed as triclosan), “suppressed growth”.
